From patent publication US7642283B2, “Mitochrondrial permeability transition pore affinity labels and modulators” (Hoffmann-La Roche Inc., priority 2003, dated 2010)
Like-named read-outs stand apart in the source and are kept apart here.

Legend:
[1] = tested on: MPTP; assay: Ca2+-induced depolarisation (membrane potential, Rhodamine-123) of rat brain mitochondria; format: biochemical; details: 50 μM Ub5 alone
Procedure: (B) Ca^2+-induced depolarisation of rat brain mitochondria. The medium used was as in the legend to FIG. 4, except that 0.5 μM Rhodamine-123 was added instead of Calcium Green-5N, and MPTP was induced by addition of 20 μM Ca^2+. Trace a, control (Ca^2+ alone), b, 300 nM Spiro[cyclopentane-1,5′-[5H]dibenzo[a,d]cyclohepten]-2-one,10′,11′-dihydro-3-methylene-, c, 300 nM Spiro[cyclopentane-1,5′-[5H]dibenzo[a,d]cyclohepten]-2-one,10′,11′-dihydro-3-methylene- and 50 μM Ub5.
The effect of Spiro[cyclopentane-1,5′-[5H]dibenzo[a,d]cyclohepten]-2-one,10′,11′-dihydro-3-methylene- at inhibiting MPTP was also investigated in mitochondria isolated from rat forebrain. […] Due to the difficulties mentioned above, the effect of Spiro[cyclopentane-1,5′-[5H]dibenzo[a,d]cyclohepten]-2-one,10′,11′-dihydro-3-methylene- on MPTP in brain mitochondria was more accurately investigated by subjecting mitochondria isolated from rat forebrain to a series of Ca^2+ pulses (5 μM, ˜150 nmol mg protein^−1) and by monitoring extramitochondrial Ca^2+ or using fluororescent probes. […] Virtually identical results were obtained from experiments where Δψm was monitored after a series of Ca^2+ additions (5 μM each). Each Ca^2+ additions caused a reversible decreases in Δψm, until MPTP opening completely collapsed Δψm and no further fluorescence increase could observed after addition of the protonophore FCCP.

[2] = biological target: T1, VDAC1 (Rattus norvegicus, UniProt Q9Z2L0); assay: Affinity labeling of rat mitochondria with the tritiated spiro compound, SDS-PAGE and fluorography; format: binding; details: rat brain mitochondria; 10 nM radiolabel
T1 construct: from tissue; host or cells: Percoll-purified rat brain and liver mitochondria
T1 sequence (Q9Z2L0 whole entry): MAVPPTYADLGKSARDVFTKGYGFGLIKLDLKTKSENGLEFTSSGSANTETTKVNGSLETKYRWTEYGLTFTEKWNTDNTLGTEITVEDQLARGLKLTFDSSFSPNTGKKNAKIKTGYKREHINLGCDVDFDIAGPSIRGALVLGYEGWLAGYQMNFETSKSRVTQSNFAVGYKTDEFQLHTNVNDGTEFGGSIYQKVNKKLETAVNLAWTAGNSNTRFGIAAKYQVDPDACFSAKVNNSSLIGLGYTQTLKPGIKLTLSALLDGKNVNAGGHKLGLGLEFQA
Procedure: FIG. 6: Affinity-labeling of isolated rat brain (A) and liver (B) mitochondria. Mitochondrial preparations were incubated in the presence of 10 nM Spiro[cyclopentane-1,5′-[5H]dibenzo[a,d]cyclohepten]-2-one,10′,11′-t2-10′,11′-dihydro-3-methylene- for 15 min at 25° C. in presence or absence of various concentrations of Spiro[cyclopentane-1,5′-[5H]dibenzo[a,d]cyclohepten]-2-one,10′,11′-dihydro-3-methylene-(unlabeled). Samples were submitted to SDS-PAGE (see Experimental Procedures section for details) and fluorography. The fluorograms of the gels are shown. The molecular mass scale (kDa) is shown in the ordinate.
(§1) FIG. 8: (A) Effect of monobromobimano (MBBM) and phenylarsino oxide (PhAO) on VDAC1 labeling by Spiro[cyclopentane-1,5′-[5H]dibenzo[a,d]cyclohepten]-2-one,10′,11′-t2-10′,11′-dihydro-3-methylene- in rat brain mitochondria. Experimental conditions were as in the legend to FIG. 5. (B) Effect of various MPTP inhibitors, atractyloside (ATR) and DIDS on VDAC1 labeling by Spiro[cyclopentane-1,5′-[5H]dibenzo[a,d]cyclohepten]-2-one,10′,11′-t2-10′,11′-dihydro-3-methylene- in rat brain mitochondria. Mitochondria were exposed to DIDS for 5 min before rinsing for removal of the free agent and labeling with Spiro[cyclopentane-1,5′-[5H]dibenzo[a,d]cyclohepten]-2-one,10′,11′-t2-10′,11′-dihydro-3-methylene.
Percoll purified mitochondria (˜30 μg protein per sample) were incubated in the presence of 10 nM Spiro[cyclopentane-1,5′-[5H]dibenzo[a,d]cyclohepten]-2-one,10′,11′-t2-10′,11′-dihydro-3-methylene- in a final volume of 200 μl. After incubation for 15 min at 25° C., samples were centrifuged at 25000×g and the mitochondrial pellet rinsed twice with buffer. Samples were then solubilized in sample buffer containing β-mercaptoethanol (1 h at 37° C.) and subjected to SDS-polyacrylamide gel-electrophoresis (SDS-PAGE) on Tris-glycine Novex pre-cast mini-gels (12% monomer concentration, Invitrogen BV, The Netherlands). After Coomassie Blue staining, gels were processed for fluorography by soaking in Amplify™ (Amersham Biosciences), drying and exposing to X-ray BioMax MS film with BioMax MS intensifying screen (Kodak) at −80° C. for the appropriate time.
as §1, with “Effect” for “FIG. 8: (A) Effect”, “monobromobimano” for “monobromobimano (MBBM)”, “oxide” for “oxide (PhAO)”, “Example 12 (FIG. 8A).” for “the legend to FIG. 5. (B)”, “Spiro[cyclopentane-1,5′-[5H]dibenzo[a,d]cyclohepten]-2-one,10′,11′-t2-10′,11′-dihydro-3-methylene (FIG. 8B).” for “Spiro[cyclopentane-1,5′-[5H]dibenzo[a,d]cyclohepten]-2-one,10′,11′-t2-10′,11′-dihydro-3-methylene.”

[3] = tested on: mitochondrial respiration; assay: Mitochondrial respiration (oxygen consumption); format: biochemical; details: at concentrations completely blocking MPTP
Procedure: Isolated liver mitochondria (˜0.5 mg protein ml^−1) were incubated in a batch mode in the presence of 20 nM [^3H]TPP ([^3H]Tetraphenylphosphonium ([^3H]TPP, 24-29 Ci/mmol) from Amersham Biosciences, Switzerland) for 15 min at 25° C. Aliquots (100 μl) of the mixture were then distributed into 96-well plates containing 100 μl of the test compound and the incubation prolonged for 15 min at 25° C. Samples were then filtered through 0.3% (v/v) polyethyleneimmine-treated GF/B glass fiber filters using a 96-channel cell harvester and the filters washed twice with 1 ml of buffer. Fifty μl of MICROSCINT 40 (Packard) were then added to each well, before counting for radioactivity in a TopCount scintillation counter (Packard). Non-specific uptake was determined in the presence of 1 mM unlabeled TPP or 1 μM carbonylcianide-p-trifluoromethoxyphenyl hydrazone (FCCP). Mitochondrial oxygen consumption was measured polarographically at 25° C. using a Clark-type electrode.
Compounds found to inhibit MPTP where then counter-screened using uptake of the potentiometric probe [^3H]-TPP (Hoek, J. B., Nicholls, D. G. & Williamson, J. R. (1980) J. Biol. Chem. 255, 1458-1564) for determining in a semi-quantitative, but rapid way whether they interfered with mitochondrial respiration (e.g. protonophores). […]

[4] = tested on: T2, MPTP; assay: Ca2+-induced swelling in deenergized liver mitochondria; format: biochemical; details: n=2; 30 min after addition of 200 μM Ca2+; read-out: EC50 of MPTP inhibition in deenergized mitochondria
T2 construct: other: n=2; 30 min after addition of 200 μM Ca2+

[5] = biological target: Cyp-D (Homo sapiens, UniProt P30405); assay: Cyp-D peptidyl prolyl cis-trans isomerase enzymatic activity; format: biochemical; details: at concentrations completely blocking MPTP
Chain of Cyp-D (P30405 30-207): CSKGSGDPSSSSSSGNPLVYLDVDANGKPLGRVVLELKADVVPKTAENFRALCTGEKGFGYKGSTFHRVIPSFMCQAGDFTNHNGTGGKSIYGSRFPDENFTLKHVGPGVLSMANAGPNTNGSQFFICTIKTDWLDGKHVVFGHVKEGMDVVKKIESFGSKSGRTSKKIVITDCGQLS

[6] = biological target: T3, MPTP (Rattus norvegicus, UniProt Q9Z2L0); assay: Ca2+-retention capacity of rat brain mitochondria (Calcium Green-5N); format: biochemical
T3 construct: other: n=2; glutamate/malate; other: glutamate/malate; 20 min; mean±SEM; unit not given; other: 300 nM; relieved by 50 μM Ub5
T3 sequence (Q9Z2L0 2-283): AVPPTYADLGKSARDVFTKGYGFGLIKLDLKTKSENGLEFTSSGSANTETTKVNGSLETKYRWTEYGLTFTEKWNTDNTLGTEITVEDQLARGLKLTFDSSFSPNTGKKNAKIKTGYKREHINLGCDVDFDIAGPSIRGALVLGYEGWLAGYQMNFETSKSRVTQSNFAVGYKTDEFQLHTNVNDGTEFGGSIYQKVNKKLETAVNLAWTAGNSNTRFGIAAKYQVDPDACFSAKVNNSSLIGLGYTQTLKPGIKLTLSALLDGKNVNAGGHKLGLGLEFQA
Procedure: FIG. 4: (A) Effect of Spiro[cyclopentane-1,5′-[5H]dibenzo[a,d]cyclohepten]-2-one,10′,11′-dihydro-3-methylene- and CsA on Ca^2+-retention capacity of rat brain mitochondria. The incubation medium contained 0.2 M sucrose, 10 mM Tris-Mops, pH 7.4, 1 mM Pi-Tris, 5 μM EGTA and 5 mM glutamate/2.5 mM malate, buffered to pH 7.4 with Tris, containing 0.01% (w/v) bovine serum albumin and 1 μM Calcium Green-5N. The final volume was 2.5 ml. Trace (a) control, (b) 1 μM CsA, (c) 1 μM Spiro[cyclopentane-1,5′-[5H]dibenzo[a,d]cyclohepten]-2-one,10′,11′-dihydro-3-methylene- and (d) 1 μM CsA plus 1 μM Spiro[cyclopentane-1,5′-[5H]dibenzo[a,d]cyclohepten]-2-one,10′,11′-dihydro-3-methylene-. Each fluorescence spike corresponds to addition of 5 μM Ca^2+. (B) Comparison of Ca^2+-retention capacity in liver (a) and brain mitochondria (b).
Effect of Spiro[cyclopentane-1,5′-[5H]dibenzo[a,d]cyclohepten]-2-one,10′,11′-dihydro-3-methylene- and CsA on Ca^2+-retention capacity of rat brain mitochondria (FIG. 4). Measurement of extramitochondrial Ca^2+ was determined using a Perkin-Elmer LS-50B fluorimeter controlled by the FL WinLab computer program. […] The final volume was 2.5 ml and the cuvette was thermostated at 25° C. Brain mitochondria were then subjected to a train of 5 μM Ca^2+ additions (˜150 nmol mg protein^−1). Extramitochondrial Ca^2+ was monitored at excitation/emission wavelengths of 505-535. […] The Ca^2+-retention capacity in liver (a) and brain mitochondria (b) were also compared (FIG. 4B).
The effect of Spiro[cyclopentane-1,5′-[5H]dibenzo[a,d]cyclohepten]-2-one,10′,11′-dihydro-3-methylene- at inhibiting MPTP was also investigated in mitochondria isolated from rat forebrain. […] Due to the difficulties mentioned above, the effect of Spiro[cyclopentane-1,5′-[5H]dibenzo[a,d]cyclohepten]-2-one,10′,11′-dihydro-3-methylene- on MPTP in brain mitochondria was more accurately investigated by subjecting mitochondria isolated from rat forebrain to a series of Ca^2+ pulses (5 μM, ˜150 nmol mg protein^−1) and by monitoring extramitochondrial Ca^2+ or using fluororescent probes.

[7] = biological target: T4, MPTP (Rattus norvegicus); assay: Ca2+-induced swelling (MPTP) in rat liver mitochondria energised with succinate; format: biochemical; details: succinate 5 mM + 2 μM rotenone; 80 μM Ca2+; ΔA540 20 min after CaCl2
T4 construct: other: n=2; glutamate/malate; other: glutamate/malate; 20 min; mean±SEM; unit not given; other: 300 nM; relieved by 50 μM Ub5
T4 sequence (Q9Z2L0 2-283): as above
Procedure: Ca^2+-induced swelling (sucrose permeability) in energized mitochondria was assayed at 25° C. in 96 well-plates by measuring changes in absorbance at 540 nm by means of a […]ax 250 spectrophometer controlled by the SOFTmax PRO™ software (Molecular Devices, Switzerland). The incubation medium contained 0.2 M sucrose, 10 mM Tris-Mops, pH 7.4, 1 mM Pi-Tris, 5 μM EGTA. Succinate (5 mM, in the presence of 2 μM rotenone) or 5 mM glutamate/2.5 mM malate, buffered to pH 7.4 with Tris, were used as respiratory substrates. After a short (˜5 min) preincubation in presence or absence of test compounds, mitochondrial swelling was induced by the addition of 20 μl CaCl2 at final concentrations ranging from 40 to 80 μM, depending on respiratory substrates and Ca^2+ sensitivity of the mitochondrial preparation. The final incubation volume was 0.2 ml and the concentration of mitochondria was ˜0.5 mg mitochondrial protein ml^−1. Swelling kinetics was followed for up to 30 min at 25° C. Absorbance readings were taken every 12 sec and the plate was shaken for 3 s between readings to ensure oxygen diffusion during the experiment and to avoid sedimentation of the mitochondria.
The incubation medium contained 0.2 M sucrose, 10 mM Tris-Mops, pH 7.4, 1 mM Pi-Tris, 5 μM EGTA.

[8] = Ca2+ pulses, rat brain mitochondria

Compound	Effect on VDAC1 labeling (incorporation of radioactivity) by the tritiated spiro compound [2]	Additive effect when combined with the spiro compound (Example 2) [6, 8]	EC50 [7] [µM]	other results
COC1=C(OC)C(=O)C(C/C=C(\C)CC/C=C(\C)CC/C=C(\C)CC/C=C(\C)CCC=C(C)C)=C(C)C1=O [Ub5, ubiquinone5, reference compound]				Effect of Ub5 alone [1]: no effect
O=S(=O)(O)c1cc(N=C=S)ccc1C=Cc1ccc(N=C=S)cc1S(=O)(=O)O [DIDS, 4,4′-diisothiocyanatostilbene-2,2′-disulfonic acid]	appeared to inhibit			
CCN(CC)CC1COc2ccc(Br)cc2C1=O (stereo not shown) [6-bromo-3-diethylaminomethyl-chroman-4-one]	inhibited			
C=C1[C@@H]2CC[C@H]3[C@]4(C)C[C@H](O[C@@H]5O[C@H](CO)[C@@H](OS(=O)(=O)O)[C@H](OS(=O)(=O)O)[C@H]5OC(=O)CC(C)C)C[C@@H](C(=O)O)[C@H]4CC[C@]3(C2)[C@H]1O [ATR, atractyloside]	did not affect			
C=C1COc2ccc(Br)cc2C1=O [6-bromo-3-methylene-chroman-4-one]	inhibited	no additive effect		Inhibition of mitochondrial respiration (basal, ADP-induced and uncoupled) [3]: did not inhibit; EC50 [4]: 2.8 µM; Inhibition of Cyp-D peptidyl prolyl cis-trans isomerase activity [5]: did not inhibit
COC1=C(OC)C(=O)C(C)=CC1=O [Ubiquinone0]	Inhibition	no such additive effect	23.2	EC50 [4]: 4.9 µM
CN1CCN(CCCN2c3ccccc3Sc3ccc(C(F)(F)F)cc32)CC1 [Trifluoroperazine]	did not affect		9.4	Additive effect when combined with the spiro compound (Example 2) [6]: additive
CO[C@H](C/C=C\C=C\CC/C=C/C[C@H](C)/C=C/C(=C\C(=O)O)CC(=O)O)/C(C)=C\C=C(/C)C(=O)O [Bongkrekic acid]	did not affect	additive	11.5	
